Laboratory results reported in publication PMC11013662, “New Thiosemicarbazide Derivatives with Multidirectional Biological Action” (Molecules, 2024).
Converted amounts (≈) assume the structure as drawn. “And” between values parts separate entries of the source, which are not always exact repeats. Identical values can stand only once.

Legend:
[1] = system: lipid oxidation stimulated by iron (II) ions in rat brain homogenate; test: Antioxidant activity: MDA from iron(II)-stimulated lipid oxidation in brain homogenate; assay type: biochemical; details: 10 μM compound; for MDA: 0.1% FeCl2 and 1 mM ascorbic acid, 1 h 37 °C; for Antioxidative Potential Value: reduction of MDA vs control sample
Procedure: The antioxidant potential of the newly synthesized derivatives was assessed based on the analysis of the malondialdehyde (MDA) concentration formed as a product of lipid oxidation stimulated by iron (II) ions.
The antioxidant activity of the tested compounds was measured in the brain homogenate of intact rats bred at the Central Laboratory of Experimental Animals of the Medical University of Warsaw. Brains were collected according to procedure no. 3R. A 10% (m/v) rat brain solution was obtained by homogenizing freshly prepared brain washed with cold 0.9% NaCl in cold 10 mM TRIS-HCl buffer, with pH = 7.5. The homogenate was centrifuged at 4 °C (2000 rpm) to obtain supernatant 1 [54, 60]. Sample preparation was as follows: 100 μM stock solutions of test compounds in DMSO were added to […] of supernatant 1 to a final concentration of 10 μM. The reference sample contained brain homogenate supernatant and DMSO.
Freshly prepared solutions of 0.1% FeCl2 (0.2 mL) and 1 mM ascorbic acid (0.4 mL) were added to all samples to initiate the oxidation reaction. Samples were incubated for 1 h at 37 °C. Then, 8.1% sodium dodecyl sulfate (SDS) solution was added to inhibit the oxidation reaction. Acetate buffer (pH = 3.4) and 0.8% thiobarbituric acid (TBA) solution (pH = 6) were added to each sample to determine the concentration of malondialdehyde (MDA). The samples were incubated for 1 h at 100 °C, then cooled on ice and centrifuged (10 min, 4000 rpm). The absorbance was measured at a wavelength of 532 nm against a blank sample (acetate buffer with TBA solution).
Calculation of malondialdehyde (MDA) concentration was performed as follows: MDA concetration=∆ A532 nm×1.56×10^−6 [nmol MDA/h/g tissue]

[2] = system: Bacillus cereus ATCC 10876; test: Broth microdilution MIC / MBC; assay type: cell-based; details: ATCC10876, B. cereus ATCC 10876
Procedure: (§1) The microdilution method was used to determine the MIC values of newly synthesized compounds. The antimicrobial activity of the thiosemicarbazides series was tested on ten reference bacterial strains purchased from the American Type Culture Collection (ATCC). Seven Gram-positive reference strains (S. aureus ATCC 29213, S. aureus ATCC 43300, S. aureus ATCC 6538, S. aureus ATCC 25923, S. epidermidis ATCC 12228, M. luteus ATCC 10240, and B. cereus ATCC 10876) and three Gram-negative reference bacteria (K. pneumoniae ATCC 13883, E. coli ATCC 25922, S. typhimurium ATCC 14028) were used. These bacterial strains are representatives of microorganisms that can cause the most common opportunistic infections among humans. The bacteria were grown on Mueller–Hinton agar (MHA) plates before examination. To perform the assay, all bacteria were placed in sterile saline (0.85% NaCl) to obtain a suspension of the optical density of the 0.5 McFarland standard (1.50 × 10^8 colony-forming units (CFUs)/mL). A solution of the tested compounds was prepared in dimethyl sulfoxide (DMSO) at a concentration of 50 mg/mL as a stock solution.
(§2) A 96-well microtiter plate and microbroth two-fold dilution method was used to determine the minimum inhibitory concentration (MIC) according to the EUCAST (European Committee on Antimicrobial Susceptibility Testing) reference recommendation. The solutions were then diluted with Mueller–Hinton broth (MHB, Biomaxima, Lublin, Poland) medium to obtain a solution with a basic concentration of 1000 µg/mL. Then, using the two-fold dilution method with MHB, the tested compounds were introduced into the wells of the microplate to provide a final concentration in the range of 0.49 to 1000 µg/mL. Then, 2 μL of bacterial inoculum with a density of 0.5 McFarland standard was added into each well. Each well was filled with a total volume of 100 μL. Then, microtiter plates were incubated for 18 ± 2 h at 35 °C. After incubation, the growth of bacteria was monitored by a Biotek ELx800 (Biokom, Janki, Poland) spectrophotometer at 600 nm (OD600). The MIC assays were performed in triplicate.
(§3) A negative control with MHB and without tested compounds was used. Clinically used anti-bacterial agents, cefuroxime and vancomycin, were included as positive controls for the purpose of comparison in a concentration range from 0.007 to 15.625 µg/mL.
(§4) The in vitro antimicrobial activity of the tested compounds was determined by the MIC, which was defined as the lowest concentration of the compound tested at which no visible growth of the test bacteria was observed. The MBC (the minimum bactericidal concentration) is defined as the lowest concentration of antimicrobial agent resulting in reduction in the viability of the initial bacterial inoculum by ≥99.9% on the plate. Generally, an MBC/MIC ratio less than 4 is considered bactericidal for an antimicrobial, and an MBC/MIC > 8 is indicative of bacteriostatic activity. For the MBC test, the Mueller–Hinton agar (MHA, Biomaxima, Poland) plate assay was used. MBC was determined after the broth dilution period of an MIC test has been completed. After the MIC detection, 5 µL aliquots from each well were plated on an MHA plate and grown at 35 °C overnight. The MBC values were determined by observing the first clear area on the agar plate that has no observable bacterial growth.

[3] = system: Staphylococcus aureus ATCC 43300; test: Broth microdilution MIC / MBC; assay type: cell-based; details: S. aureus ATCC 43300 (MRSA); for MIC: read-out: MIC; for MBC: read-out: MBC
Procedure: as §1, §2, §3, §4

[4] = system: Staphylococcus aureus ATCC 29213; test: Broth microdilution MIC / MBC; assay type: cell-based; details: ATCC29213, S. aureus ATCC 29213
Procedure: as §1, §2, §3, §4

[5] = system: Staphylococcus aureus ATCC 25923; test: Broth microdilution MIC / MBC; assay type: cell-based; details: for MIC: ATCC25923, S. aureus ATCC 25923, read-out: MIC; for MBC: ATCC25923, S. aureus ATCC 25923, read-out: MBC
Procedure: as §1, §2, §3, §4

[6] = system: Micrococcus luteus ATCC 10240; test: Broth microdilution MIC / MBC; assay type: cell-based; details: ATCC10240, M. luteus ATCC 10240
Procedure: as §1, §2, §3, §4

[7] = system: Staphylococcus aureus ATCC 6538; test: Broth microdilution MIC / MBC; assay type: cell-based; details: ATCC6538, S. aureus ATCC 6538
Procedure: as §1, §2, §3, §4

Rhabditis sp. = test: Anthelmintic activity assay on nematode culture; assay type: cell-based; details: 24 h exposure
Procedure: All compounds in the anthelmintic activity study were prepared in the form of a homogeneous suspension. The anthelmintic activity was tested according to the procedure developed by Bogucka-Kock and Kołodziej. The tested compounds were added to the culture of Rhabditis sp. at experimentally determined concentrations. […] LC50 values (lethal concentration) were determined for two active substances. It was defined as the amount of the substance causing the death of 50% of nematodes.

[8] = system: S. aureus reference strains; test: Broth microdilution MIC / MBC, summary over S. aureus strains; assay type: cell-based, Staphylococcus aureus
Procedure: The microdilution method was used to determine the MIC values of newly synthesized compounds. The antimicrobial activity of the thiosemicarbazides series was tested on ten reference bacterial strains purchased from the American Type Culture Collection (ATCC). Seven Gram-positive reference strains (S. aureus ATCC 29213, S. aureus ATCC 43300, S. aureus ATCC 6538, S. aureus ATCC 25923, S. epidermidis ATCC 12228, M. luteus ATCC 10240, and B. cereus ATCC 10876) and three Gram-negative reference bacteria (K. pneumoniae ATCC 13883, E. coli ATCC 25922, S. typhimurium ATCC 14028) were used. […]
A 96-well microtiter plate and microbroth two-fold dilution method was used to determine the minimum inhibitory concentration (MIC) according to the EUCAST (European Committee on Antimicrobial Susceptibility Testing) reference recommendation. […] After incubation, the growth of bacteria was monitored by a Biotek ELx800 (Biokom, Janki, Poland) spectrophotometer at 600 nm (OD600). […]
The in vitro antimicrobial activity of the tested compounds was determined by the MIC, which was defined as the lowest concentration of the compound tested at which no visible growth of the test bacteria was observed. […] MBC was determined after the broth dilution period of an MIC test has been completed. […] The MBC values were determined by observing the first clear area on the agar plate that has no observable bacterial growth.

Structure (SMILES) | melting point [°C] | MDA [1] [mM × 10^−3] | Antioxidative Potential Value [1] | MIC [2] [µg/mL] | MIC [3] [µg/mL] | MIC [4] [µg/mL] | MIC [5] [µg/mL] | MIC [6] [µg/mL] | MIC [7] [µg/mL] | LC50 (Rhabditis sp.) [µg/mL] | MBC [2] [µg/mL] | MBC [3] [µg/mL] | MBC [4] [µg/mL] | MBC [5] [µg/mL] | MBC [6] [µg/mL] | MBC [7] [µg/mL] | MBC ([8]; Staphylococcus aureus, all tested S. aureus reference strains) [µg/mL] | MIC range ([8]; S. aureus ATCC 43300 MRSA and all MSSA reference strains) [µg/mL]
COc1cccc(NC(=S)NNC(=O)c2cccc(C(F)(F)F)c2)c1 [Compound 3b, 1-(3-Trifluoromethylbenzoyl)-4-(3-methoxyphenyl)thiosemicarbazide] | 181.3 | 1.703 ± 0.177 | 36.9% | > 1000 | > 1000 | > 1000 | 62.5 (≈ 169 µM) | 500 (≈ 1350 µM) | > 1000 | – | – | – | – | – | – | – | – | –
O=C(NNC(=S)Nc1cccc(Cl)c1)c1cccc(C(F)(F)F)c1 [Compound 3a, 4-(3-Chlorophenyl)-1-(3-trifluoromethylbenzoyl)thiosemicarbazide] | – | 1.395 ± 0.232 | 48.3% | 1.95 (≈ 5.22 µM) | 3.9 (≈ 10.4 µM) | 1.95 (≈ 5.22 µM) | 1.95 (≈ 5.22 µM) | 1.95 (≈ 5.22 µM) | 1.95 (≈ 5.22 µM) | 14800 (≈ 39500 µM) | 15.6 (≈ 41.8 µM) | 1000 (≈ 2680 µM) | 1000 (≈ 2680 µM) | 1000 (≈ 2680 µM) | 15.6 (≈ 41.8 µM) | 1000 (≈ 2680 µM) | 1000 (≈ 2680 µM) | –
O=C(NNC(=S)Nc1ccccc1)c1cccc(C(F)(F)F)c1 [Compound 3f, 1-(3-Trifluoromethylbenzoyl)-4-(phenyl)thiosemicarbazide] | 176.4 | 1.450 ± 0.006 | 46.3% | > 1000 | > 1000 | > 1000 | 62.5 (≈ 184 µM) | 1000 (≈ 2950 µM) | > 1000 | – | – | – | – | – | – | – | – | –
O=C(NNC(=S)Nc1cccc(F)c1)c1cccc(C(F)(F)F)c1 [Compound 3e, 1-(3-Trifluoromethylbenzoyl)-4-(3-fluorophenyl)thiosemicarbazide] | 174.4 | 1.274 ± 0.121 | 52.8% | 7.81 (≈ 21.9 µM) | 31.2 (≈ 87.5 µM) | 15.6 (≈ 43.7 µM) | 31.2 (≈ 87.5 µM) | 15.6 (≈ 43.7 µM) | 15.6 (≈ 43.7 µM) | – | > 1000 | > 1000 | > 1000 | > 1000 | > 1000 | > 1000 | – | 15.63 to 31.25
Cc1cccc(NC(=S)NNC(=O)c2cccc(C(F)(F)F)c2)c1 [Compound 3d, 1-(3-Trifluoromethylbenzoyl)-4-(3-methylphenyl)thiosemicarbazide] | 230.7 | 1.320 ± 0.143 | 50.1% and 51.1% | > 1000 | > 1000 | > 1000 | 1000 (≈ 2830 µM) | 1000 (≈ 2830 µM) | > 1000 | – | – | – | – | – | – | – | – | –
FC(F)(F)c1cccc(-c2n[nH]c(=S)n2-c2cccc(Cl)c2)c1 [Compound 4, 4-(3-Chlorophenyl)-5-(3-trifluoromethylphenyl)-2,4-dihydro-3H-1,2,4-triazole-3-thione] | – | 2.022 ± 0.121 | 25.1% | > 1000 | > 1000 | > 1000 | 1000 (≈ 2810 µM) | 1000 (≈ 2810 µM) | > 1000 | 370 (≈ 1040 µM) | – | – | – | – | – | – | – | –
CCCCNC(=S)NNC(=O)c1cccc(C(F)(F)F)c1 [Compound 3c, 4-Butyl-1-(3-trifluoromethylbenzoyl)thiosemicarbazide] | 161.6 | 1.773 ± 0.077 | 34.3% | > 1000 | > 1000 | > 1000 | 250 (≈ 783 µM) | 1000 (≈ 3130 µM) | > 1000 | – | – | – | – | – | – | – | – | –
